Values belong to the molecule of their own block, whether it stands above or below them.
Experiments:
[1] = Rodent pharmacokinetic study; format: in vivo, Male Wistar rats; details: male, Wistar, rat, plasma; for bioavailability: oral 3 mg/kg vs i.v. 1 mg/kg, read-out: F (bioavailability)
Protocol: Rodent Pharmacokinetic Study
Male Wistar rats (260±50 grams) were used as experimental animals. Animals were housed individually in polypropylene cage. Two days prior to study, male Wistar rats were anesthetized with isoflurane for surgical placement of jugular vein catheter. Rats were randomly divided for oral (3 mg/kg) and intravenous (i.v) (1 mg/kg) dosing (n=3/group) and fasted overnight before oral dosing (p.o.). However, rats allocated to intravenous (i.v.) dosing food and water was provided ad libitum.
At pre-determined point, blood was collected through jugular vein and replenished with an equivalent volume of normal saline. Collected blood was transferred into a labelled eppendorf tube containing 10 μL of heparin as an anticoagulant. Typically blood samples were collected at following time points: 0.08, 0.25, 0.5, 1, 2, 4, 6, 8, and 24 h post dose. Blood was centrifuged at 4000 rpm for 10 minutes. Plasma was separated and stored frozen at −80° C. until analysis. The concentrations of the test compounds were quantified in plasma by qualified LC-MS/MS method using suitable extraction technique. The test compounds were quantified in the calibration range around 1-1000 ng/mL in plasma. Study samples were analyzed using calibration samples in the batch and quality control samples spread across the batch.
Pharmacokinetic parameters Cmax, Tmax (h), AUCt, T1/2, clearance and bioavailability (F) were calculated by non-compartmental model using standard non-compartmental model by using Phoenix WinNonlin 6.0.2 or 6.0.3 version Software package.

[2] = biological target: T1, recombinant human Muscarinic M1 receptor (Homo sapiens, UniProt P11229); assay: Allosteric potency EC50 for Muscarinic M1 receptor, CHO pCRE-Luc reporter cell-based assay with EC20 of acetylcholine; details: CHO cells, human M1, luciferase reporter, in presence of EC20 of acetylcholine, 4 h
T1 sequence (P11229 1-460): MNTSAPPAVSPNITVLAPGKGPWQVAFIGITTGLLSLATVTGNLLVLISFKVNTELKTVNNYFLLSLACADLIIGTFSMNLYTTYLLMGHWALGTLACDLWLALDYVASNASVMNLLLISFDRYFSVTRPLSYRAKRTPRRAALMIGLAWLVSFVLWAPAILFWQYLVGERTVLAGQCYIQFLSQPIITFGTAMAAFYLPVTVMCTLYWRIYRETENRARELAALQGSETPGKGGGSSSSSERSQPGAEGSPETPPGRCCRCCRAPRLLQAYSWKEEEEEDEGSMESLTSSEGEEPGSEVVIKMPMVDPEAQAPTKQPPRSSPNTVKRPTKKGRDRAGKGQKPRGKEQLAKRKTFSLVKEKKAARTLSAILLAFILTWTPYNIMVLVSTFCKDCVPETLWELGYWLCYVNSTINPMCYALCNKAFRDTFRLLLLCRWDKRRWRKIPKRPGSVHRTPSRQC
Protocol: Determination of allosteric potency EC50 values for Muscarinic M1 receptor:
A stable CHO cell line expressing recombinant human Muscarinic M1 receptor and pCRE-Luc reporter system was used for cell-based assay. The assay offers a non-radioactive based approach to determine binding of a compound to GPCRs. In this specific assay, the level of intracellular cyclic AMP which is modulated by activation or inhibition of the receptor is measured. The recombinant cells harbor luciferase reporter gene under the control of cAMP response element.
The above cells were grown in 96 well clear bottom white plates in Hams F12 medium containing 10% fetal bovine serum (FBS). Prior to the addition of compounds or standard agonist, cells were serum starved overnight. Increasing concentrations of test compounds were added along with EC20 of acetylcholine in OptiMEM medium to the cells. The incubation was continued at 37° C. in CO2 incubator for 4 h. Medium was removed and cells were washed with phosphate buffered saline. The cells were lysed and luciferase activity was measured in a Luminometer. Luminescence counts in each concentrations of test item were normalized to the acetylcholine induced maximum response and the data was analyzed using Graphpad software. EC50 values of the compounds were defined as the concentration required in stimulating the luciferase activity by 50% in presence of EC20 of acetylcholine.

[3] = Rodent brain penetration study; format: in vivo, Male Wistar rats; details: male, Wistar, brain and plasma, po; rat, 3 mg/kg, p.o. @ 1.0 hr, brain-plasma ratio; read-out: Single dose Rat Brain Penetration (Cb/Cp)
Protocol: Rodent Brain Penetration Study
Male Wistar rats (260±40 grams) were used as experimental animals. Three animals were housed in each cage. Animals were given water and food ad libitum throughout the experiment and maintained on a 12 h light/dark cycle.
Brain penetration was determined in discrete manner in rats. One day prior to dosing day, male Wistar rats were acclimatized and randomly grouped according to their weight. At each time point (0.5, 1 and 2 h) n=3 animals were used.
The test compounds were suitably preformulated and administered orally at (free base equivalent) 3 mg/kg. Blood samples were removed via cardiac puncture by using isoflurane anesthesia. The animals were sacrificed to collect brain tissue. Plasma was separated and brain samples were homogenized and stored frozen at −20° C. until analysis. The concentrations of the test compounds in plasma and brain were determined using LC-MS/MS method.
The test compounds were quantified in plasma and brain homogenate by qualified LC-MS/MS method using suitable extraction technique. The test compounds were quantified in the calibration range of 1-500 ng/mL in plasma and brain homogenate. Study samples were analyzed using calibration samples in the batch and quality control samples spread across the batch.

- EC50 [2]: 0.449 µM
Structure (SMILES): Cn1cc(-c2ccc(Cc3cc(C(=O)N[C@@H]4CCCC[C@H]4O)c4nc[nH]c4c3)cc2)cn1 [Example 29, N-(cis-1S,2S-2-Hydroxycyclohexyl)-6-[4-(1-methyl-1H-pyrazol-4-yl)-benzyl]-1H-benzimidazole-4-carboxamide]

- EC50 [2]: 0.694 µM
Structure (SMILES): Cc1nc2c(C(=O)N[C@H]3CCCC[C@@H]3O)cc(Cc3ccc(-n4cccn4)cc3)c(C)c2[nH]1 [Example 38, N-(cis-1S,2S-2-Hydroxycyclohexyl)-2,7-dimethyl-6-(4-pyrazol-1-yl-benzyl)-1H-benzimidazole-4-carboxamide]

- EC50 [2]: 2.82 µM
Structure (SMILES): Cc1c(Cc2cccnc2Cl)cc(C(=O)N[C@@H]2CCCC[C@H]2O)c2nc[nH]c12 [Example 31, N-(cis-1S,2S-2-Hydroxycyclohexyl)-7-methyl-6-[2-chloropyridin-3-ylmethyl]-1H-benzimidazole-4-carboxamide]

- EC50 [2]: 0.151 µM
Structure (SMILES): Cc1c(Cc2ccc(-c3cnn(C)c3)cc2F)cc(C(=O)N[C@@H]2CCCC[C@H]2O)c2nc[nH]c12 [Example 30, N-(cis-1S,2S-2-Hydroxycyclohexyl)-7-methyl-6-[2-fluoro-4-(1-methyl-1H-pyrazol-4-yl)-benzyl]-1H-benzimidazole-4-carboxamide]

- EC50 [2]: 0.895 µM
Structure (SMILES): Cc1nc2c(C(=O)N[C@H]3CCCC[C@@H]3O)cc(Cc3ccc(-c4cnn(C)c4)cc3)c(C)c2[nH]1 [Example 39, N-(cis-1S,2S-2-Hydroxycyclohexyl)-2,7-dimethyl-6-[4-(1-methyl-1H-pyrazol-4-yl)-benzyl]-1H-benzimidazole-4-carboxamide]

- EC50 [2]: 10 µM
Structure (SMILES): Cc1c(Cc2ccc(-c3cnn(C)c3)cc2)cc(C(=O)N[C@@H]2CCCC[C@H]2O)c2c1ncn2C [Example 42, N-(cis-1S,2S-2-Hydroxycyclohexyl)-3,7-dimethyl-6-[4-(1-methyl-1H-pyrazol-4-yl)-benzyl]-3H-benzimidazole-4-carboxamide]

- EC50 [2]: 0.597 µM
Structure (SMILES): Cn1cc(-c2ccc(Cc3cc(C(=O)N[C@H]4CCCC[C@@H]4O)c4[nH]cnc4c3)c(F)c2F)cn1 [Example 37, N-(cis-1S,2S-2-Hydroxycyclohexyl)-6-[2,3-difluoro-4-(1-methyl-1H-pyrazol-4-yl)-benzyl]-1H-benzimidazole-4-carboxamide]

More lines, now with the values behind:

Structure (SMILES): Cc1c(Cc2ccnc(Cl)c2)cc(C(=O)N[C@H]2CCCC[C@@H]2O)c2ncccc12 [Example 1, N-(cis-1S,2S-2-Hydroxycyclohexyl)-6-(2-chloropyridin-4-ylmethyl)-5-methylquinoline-8-carboxamide]
- AUC(0-t) ([1]; iv, i.v. 1 mg/kg): 0.492 ± 0.022 µg·h/mL
- half-life ([1]; iv, i.v. 1 mg/kg): 1.3 ± 0.5 h
- clearance ([1]; iv, i.v. 1 mg/kg): 2.04 ± 0.09 L/h/kg
- bioavailability [1]: 24 ± 8%
- AUC(0-t) ([1]; oral 3 mg/kg): 0.36 ± 0.117 µg·h/mL
- Cmax ([1]; oral 3 mg/kg): 0.15 ± 0.039 µg/mL
- Tmax ([1]; oral 3 mg/kg): 0.5 to 1 h
- half-life ([1]; oral 3 mg/kg): 1.1 ± 0.1 h
- EC50 [2]: 0.719 µM
- Kp at 1 h [3]: 0.54 ± 0.04

Structure (SMILES): Cc1c(Cc2ccc(Cl)nc2)cc(C(=O)N[C@H]2CCCC[C@@H]2O)c2ncccc12 [Example 6, N-(cis-1S,2S-2-Hydroxycyclohexyl)-6-(2-chloropyridin-5-ylmethyl)-5-methylquinoline-8-carboxamide]
- AUC(0-t) ([1]; iv, i.v. 1 mg/kg): 0.664 ± 0.081 µg·h/mL
- half-life ([1]; iv, i.v. 1 mg/kg): 1.5 ± 0.6 h
- clearance ([1]; iv, i.v. 1 mg/kg): 1.5 ± 0.198 L/h/kg
- bioavailability [1]: 50 ± 2%
- AUC(0-t) ([1]; oral 3 mg/kg): 1 ± 0.038 µg·h/mL
- Cmax ([1]; oral 3 mg/kg): 0.582 ± 0.072 µg/mL
- Tmax ([1]; oral 3 mg/kg): 0.5 h
- half-life ([1]; oral 3 mg/kg): 1.3 ± 0.2 h
- EC50 [2]: 1.67 µM
- Kp at 1 h [3]: 0.26 ± 0.04

Structure (SMILES): Cc1c(Cc2ccc(-n3cccn3)cc2)cc(C(=O)N[C@H]2CCCC[C@@H]2O)c2c1NCCO2 [Example 17, N-(cis-1S,2S-2-Hydroxycyclohexyl)-6-(4-pyrazol-1-yl-benzyl)-5-methyl-3,4-dihydro-2H-benzo[1,4]oxazine-8-carboxamide]
- AUC(0-t) ([1]; iv, i.v. 1 mg/kg): 0.635 ± 0.07 µg·h/mL
- half-life ([1]; iv, i.v. 1 mg/kg): 1.3 ± 0.2 h
- clearance ([1]; iv, i.v. 1 mg/kg): 1.56 ± 0.18 L/h/kg
- bioavailability [1]: 37 ± 6%
- AUC(0-t) ([1]; oral 3 mg/kg): 0.705 ± 0.118 µg·h/mL
- Cmax ([1]; oral 3 mg/kg): 0.288 ± 0.0265 µg/mL
- Tmax ([1]; oral 3 mg/kg): 1 h
- half-life ([1]; oral 3 mg/kg): 1.3 ± 0.1 h
- EC50 [2]: 1.12 µM
- Kp at 1 h [3]: 0.32 ± 0.06

Structure (SMILES): Cc1c(Cc2ccc(-c3cnn(C)c3)cc2)cc(C(=O)N[C@H]2CCCC[C@@H]2O)c2nc[nH]c12 [Example 28, N-(cis-1S,2S-2-Hydroxycyclohexyl)-7-methyl-6-[4-(1-methyl-1H-pyrazol-4-yl)-benzyl]-1H-benzimidazole-4-carboxamide]
- EC50 [2]: 0.105 µM

Structure (SMILES): Cc1c(Cc2ccc(-c3cscn3)cc2)cc(C(=O)N[C@H]2CCOC[C@@H]2O)c2ncccc12 [Example 13, N-(cis-3S,4S-3-Hydroxytetrahydropyran-4-yl)-6-(4-thiazol-4-yl-benzyl)-5-methylquinoline-8-carboxamide]
- EC50 [2]: 0.249 µM

Structure (SMILES): Cc1c(Cc2ccc(-c3cnn(C)c3)c(F)c2F)cc(C(=O)N[C@H]2CCCC[C@@H]2O)c2ncccc12 [Example 8, N-(cis-1S,2S-2-Hydroxycyclohexyl)-6-[2,3-difluoro-4-(1-methyl-1H-pyrazol-4-yl)-benzyl]-5-methylquinoline-8-carboxamide]
- AUC(0-t) ([1]; iv, i.v. 1 mg/kg): 6.15 ± 0.485 µg·h/mL
- half-life ([1]; iv, i.v. 1 mg/kg): 3.3 ± 0.7 h
- clearance ([1]; iv, i.v. 1 mg/kg): 0.162 ± 0.012 L/h/kg
- bioavailability [1]: 100 ± 16%
- AUC(0-t) ([1]; oral 3 mg/kg): 18.4 µg·h/mL
- Cmax ([1]; oral 3 mg/kg): 2.33 ± 0.441 µg/mL
- Tmax ([1]; oral 3 mg/kg): 2 h
- half-life ([1]; oral 3 mg/kg): 3.6 ± 0.2 h
- EC50 [2]: 0.168 µM

Structure (SMILES): Cc1c(Cc2ccc(-c3cnn(C)c3)c(F)c2)cc(C(=O)N[C@H]2CCCC[C@@H]2O)c2ncccc12 [Example 9, N-(cis-1S,2S-2-Hydroxycyclohexyl)-6-[3-fluoro-4-(1-methyl-1H-pyrazol-4-yl)-benzyl]-5-methylquinoline-8-carboxamide]
- EC50 [2]: 0.185 µM

Structure (SMILES): Cn1cc(-c2ccc(Cc3cc(C(=O)N[C@H]4CCCC[C@@H]4O)c4nccn4c3)cc2)cn1 [Example 25, N-(cis-1S,2S-2-Hydroxycyclohexyl)-6-[4-(1-methyl-1H-pyrazol-4-yl)-benzyl]-imidazo[1,2-a]pyridine-8-carboxamide]
- EC50 [2]: 0.444 µM

Structure (SMILES): Cc1c(Cc2ccc(-n3cccn3)cc2)cc(C(=O)N[C@H]2CCCC[C@@H]2O)c2nccn12 [Example 19, N-(cis-1S,2S-2-Hydroxycyclohexyl)-5-methyl-6-(4-pyrazol-1-yl-benzyl)-imidazo[1,2-a]pyridine-8-carboxamide]
- EC50 [2]: 0.178 µM

Structure (SMILES): O=C(N[C@H]1CCCC[C@@H]1O)c1cc(Cc2cccc(F)c2F)cn2ccnc12 [Example 22, N-(cis-1S,2S-2-Hydroxycyclohexyl)-6-(2.3-difluorobenzyl)-imidazo[1,2-a]pyridine-8-carboxamide]
- EC50 [2]: 3.82 µM

Structure (SMILES): Cc1c(Cc2ccc(-n3cccn3)cc2)cc(C(=O)N[C@H]2CCCC[C@@H]2O)c2ncccc12 [Example 10, N-(cis-1S,2S-2-Hydroxycyclohexyl)-6-(4-pyrazol-1-yl-benzyl)-5-methylquinoline-8-carboxamide]
- EC50 [2]: 0.157 µM

From patent US11278530B2, “Polycyclic amides as muscarinic M1 receptor positive allosteric modulators” (SUVEN LIFE SCIENCES LIMITED, priority 2017, dated 2022)
